From patent US11058653B2, “Compositions comprising desaminotyrosine and uses thereof to enhance type I interferon stimulation” (Washington University, priority 2016, dated 2021)
Entries after “also recorded” stand apart in the source; their conditions may differ.

How the values were obtained:
[1] = system: influenza A/WSN/33 (rWSN) H1N1 virus; details: mouse, in vivo
[2] = system: type I IFN response elements (ISREs); assay: ISRE luciferase reporter metabolic screen (2fTGH-ISRE-CBG99 cell line); type: cell-based
Text: Therefore, a library of microbiome associated metabolites was screened for the ability to enhance type I IFN signaling.^21 A reported cell line that harbors multiple type I IFN response elements (ISREs) driving firefly luciferase was utilized.^22 Each metabolite was screened for the ability to enhance reporter activity in the background of type I IFN or polyIC (an inducer of type I IFN production) treatment (schematic FIG. 4A). Using this methodology, 11 metabolites were identified that increased reporter activity following polyIC co-stimulation (FIG. 4B) and 5 metabolites that increased ISRE reporter activity with type I IFN co-stimulation (FIG. 10).
Metabolites were screened using the 2fTGH-ISRE-CBG99 luciferase cell line.^22 The day before screening the reporter cells were plated at 3×10^4 cell/well in 96 well plates. […] Luciferase was measured at 14 hours post-treatment for IFN-β, and 24 hours post-treatment for poly(IC) using the […] […] Plates were read on a luminometer (1 second read time) using the CYTATION 5 (BioTek). For secondary validation, cells were treated with 1000 μM, 100 μM, 10 μM, and 1 μM of metabolite and 5 or 50 U/ml of IFN-β (PBL Assay Science) or 2.5 or […] of poly(IC) (Amersham Biosciences) and measured as above.

type I IFN activity = type: in vivo, mice; details: after 2-week antibiotic course; desaminotyrosine orally plus polyIC injections vs polyIC alone
[3] = system: H1N1 influenza strain PR8; assay: Influenza infection of mice, strain PR8; type: in vivo; details: mice infected with PR8
Text: (§1) FIG. 19A, FIG. 19B, FIG. 19C, FIG. 19D, FIG. 19E, FIG. 19F, FIG. 19G, FIG. 19H, FIG. 19I, FIG. 19J, FIG. 19L, FIG. 19K, FIG. 19M, and FIG. 19N (FIG. 19A and FIG. 19B) Representative images of influenza H1N1 staining by polyclonal antibody on lung cross sections from wild-type (WT) (FIG. 19A) and Irgm1^−/− (FIG. 19B) mice 6 days postinfection (representative images from 5-6 mice per group from two experiments). Bar=200 μm. (FIG. 19C and FIG. 19D) Stool (FIG. 19C) and serum (FIG. 19D) desaminotyrosine levels measured by mass spectroscopy in wild-type mice mock or treated with two weeks of antibiotics and then treated with 200 mM desaminotyrosine in drinking water for one week (n=5-13 per group from two experiments). (FIG. 19E, FIG. 19F, FIG. 19G, and FIG. 19H) Kaplan-Meier survival analysis of nonantibiotic and antibiotic-treated wild-type mice given control or desaminotyrosine in drinking water and then infected with H1N1 influenza strains PR8 (FIG. 19E and FIG. 19F) or Cali/09 (FIG. 19G and FIG. 19H) (n=10 mice per group). *p<0.05 by Mantel-Cox test. (FIG. 19I) Kaplan-Meier survival analysis of wild-type mice treated with indicated antibiotic(s) and then infected with influenza (n=20 mice per group from two experiments). *p<0.05, **p<0.01, and ****p<0.0001 compared to mock treated infected mice by Mantel-Cox test with Bonferroni-corrected threshold. […]

[4] = system: H1N1 influenza strain California/09; assay: Influenza infection of mice, strain California/09; type: in vivo; details: mice infected with California/09
Text: as §1

[5] = system: bone marrow derived macrophages infected with Influenza H1N1; type: cell-based
[6] = system: type I IFN signaling in BMDMs; type: cell-based, mouse
epithelial proliferation = assay: Crypt height and epithelial proliferation in mice; type: in vivo; details: VNAM 2 weeks, then 200 mM desaminotyrosine in drinking water
Experimental: FIG. 13 depicts an experimental scheme of mice treated with VNAM for 2 weeks and then give +/−200 mM desaminotyrosine in the drinking water for 1 week. After 1 week, the mice were continued on +/−200 mM desaminotyrosine and then treated with +/−1 mg/kg polyIC intraperitoneally once per day for 4 days and then sacrificed 1 day later.
(FIG. 14A, FIG. 14B, FIG. 14C, and FIG. 14D) Representative images of the crypt height for control (FIG. 14A), polyIC (FIG. 14B), deasminotyrosine, (FIG. 14C), and desaminotyrosine+polyIC (FIG. 14D) treated mice. FIG. 14E depicts a graph quantifying the crypt height after the various treatments relative to the control treated mice.
To examine the effects of desaminotyrosine on epithelial proliferation, mice were treated with and without antibiotics for 2 weeks and then with or without desaminotyrosine for […] and with or without polyIC (FIG. 13).

[7] = system: dextran sodium sulfate (DSS) induced colitis; type: in vivo; details: antibiotic treated mice, 2.5% DSS
[8] = Barrier function: 4 kD dextran (FD4) in serum after gavage; type: in vivo, mice; details: VNAM 2 weeks then 200 mM desaminotyrosine 1 week in drinking water
Experimental: FIG. 17A depicts a graph quantifying the amount of damaged area following treatment with DSS +/−desaminotyrosine. FIG. 17B depicts a graph dextrain-FD4 measured in the serum of mice treated with VNAM for 2 weeks and then +/−200 mM of desaminotyrosine for 1 week in the drinking water. 4 kD Dextran was administered by gavage and serum collected 4 hours post-gavage.

Compound | influenza associated-mortality [1] | ISRE reporter activity (fold increase in luminescence), type I IFN signaling ([2]; with polyIC co-stimulation) | ISRE reporter activity (fold increase in luminescence), type I IFN signaling ([2]; with type I IFN (IFN-β) co-stimulation) | type I IFN activity in the serum (type I IFN activity) | protection (survival) [3] | protection (survival) [4] | influenza RNA in bone marrow derived macrophages ([5]; 24 hours pretreatment (100 μM), then infection MOI-2 48 hours, IFN/Ifnar-dependent) | ISG transcripts (Oas1, IP-10) after in vitro influenza infection ([5]; pretreated BMDMs, Ifnar-dependent) | polyIC and type I IFN expression of IP-10 ([6]; BMDMs from Mavs−/− mice) | IP-10 expression ([6]; BMDMs from Stat1−/− mice, polyIC or type I IFN with desaminotyrosine) | ISG transcript abundance (IP-10) ([6]; wild-type BMDMs, combined with either polyIC or type I IFN) | crypt height (epithelial proliferation) | epithelial proliferation (epithelial proliferation; alone) | response to DSS injury (epithelial proliferation, crypt preservation, damage) [7] | damaged area of the distal colon after DSS treatment ([7]; with desaminotyrosine (control mice ~90%)) [%] | barrier function (dextran-FD4 in serum 4 hours post-gavage) [8] | airway epithelial damage and apoptosis (H+E, cleaved caspase 3) [1] | desaminotyrosine mediated protection (survival) [1] | phenotypes associated with antibiotic treatment (morbidity and mortality) [1] | viral RNA in the lungs (matrix, qRT-PCR) [1]
Cc1ncc([N+](=O)[O-])n1CCO [metronidazole, reference compound] | enhanced influenza associated-mortality |  |  |  |  |  |  |  |  |  |  |  |  |  |  |  |  |  |  | 
O=C(O)CCc1ccc(O)cc1 [desaminotyrosine, 3-(4-hydroxyphenyl)propanoic acid] |  | enhanced type I IFN signaling in a dose-dependent manner | enhanced type I IFN signaling in a dose-dependent manner | increased type I IFN activity in the serum | protected | protected | decreased influenza RNA; also recorded: depleted | increased ISG transcripts | still enhanced | not enhanced | increased | increased crypt height | increased; also recorded: stimulated epithelia proliferation in the small intestine alone | promoted epithelial profliferation and crypt preservation; also recorded: rescues DSS damage | ~8 | no effect on barrier function; also recorded: Not significant | greater airway epithelial damage and apoptosis were observed in control lungs | abolished | recused the phenotypes associated with antibiotic treatment | less viral RNA was found in the lungs
CN[C@H](CC(C)C)C(=O)N[C@H]1C(=O)N[C@@H](CC(N)=O)C(=O)N[C@H]2C(=O)N[C@H]3C(=O)N[C@H](C(=O)N[C@H](C(=O)O)c4cc(O)cc(O)c4-c4cc3ccc4O)[C@H](O)c3ccc(c(Cl)c3)Oc3cc2cc(c3O[C@@H]2O[C@H](CO)[C@@H](O)[C@H](O)[C@H]2O[C@H]2C[C@](C)(N)[C@H](O)[C@H](C)O2)Oc2ccc(cc2Cl)[C@H]1O [vancomycin, reference compound] | enhanced influenza associated-mortality |  |  |  |  |  |  |  |  |  |  |  |  |  |  |  |  |  |  | 
